Here are results for 4 molecules from US20250092065A1, “2-(INDAZOL-5-YL)-6-(PIPERIDIN-4-YL)-1,7-NAPHTHYRIDINE DERIVATIVES AND RELATED COMPOUNDS AS MODULATORS FOR SPLICING NUCLEIC ACIDS AND FOR THE TREATMENT OF PROLIFERATIVE DISEASES” (REMIX THERAPEUTICS INC., priority 2022, published 2025).

Read-outs that look alike come from different tables or passages of the source.

One data set deals with K562 cells. Description: Cell Titer Glo 2.0 cell viability (toxicity) assay, K562. Particulars: 500 cells/well, 72 hours. On the technique in general: ATP-based viability assays read luminescence as a measure of living cells.
For the next data set, the system named is Target C. Description: HiBiT protein abundance assay, Target C (K562 HiBiT knock-in). The data set is classed as cell-based, human. Particulars: HiBiT knock-in K562 cells, 24 hours, top dose 10 μM. In a few lines: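 K562 HiBiT knock-in cells (10000/well) were treated 24 h at 37° C with a 10-point 3-fold dilution series (top 10 μM final, ≤0.25% DMSO). HiBiT luminescence was read after lytic LgBiT detection. Percent response used unmodified K562 and DMSO-treated knock-in controls, and IC50 came from a four-parameter fit at 50% of untreated.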
A general note: HiBiT is a short tag that completes a luciferase, so light tracks the accessible tagged protein.

Another data set concerns MYB mRNA. Kind of data set: RT-qPCR splicing assay, MYB mRNA canonical (CJ) and alternative (AJ) junction. The data set is classed as cell-based, human. Particulars: Homo sapiens; for AC50: MYB alternative junction mRNA, read-out: MYB AJ (increase in AJ mRNA, AC50). The method in brief: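 A673 or K562 cells treated 24 h at 37 °C with an 11-point 3-fold dilution series (top 10 uM, DMSO ≤0.25%). Lysates went directly to one-step RT-qPCR quantifying canonical (CJ) and alternative-exon (AJ) junctions, normalized to GAPDH, GUSB or PPIA. Values from ΔΔCt versus DMSO, RQ = 2^(−ΔΔCt), expressed as percentage response.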
(In general: Quantitative PCR measures a nucleic acid by following its amplification.)

In a further data set the test system is MYB. Kind of data set: HiBiT protein abundance assay, MYB (K562 HiBiT knock-in). The format is cell-based, human. Particulars: HiBiT knock-in K562 cells, 24 hours, top dose 10 μM. In a few lines: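 Steps: seed HiBiT knock-in K562 cells; add compound in 10-point 3-fold series from 10 μM final; incubate 24 h, 37 °C; add lytic HiBiT reagent, shake 5 min, wait 10 min; read luminescence. Normalize to parental K562 and DMSO controls, fit 4PL, take IC50.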

Where [1] appears, read: MYB canonical junction mRNA, RT-qPCR, read-out: MYB CJ (decrease in CJ mRNA levels, IC50).
Where [2] appears, read: canonical junction qPCR panel, Table 4, read-out: MYB IC50 (decrease in CJ mRNA levels).

A word on the IC50: it is the concentration that gives 50% inhibition. What is called AC50 is the midpoint of the concentration-response curve, whichever way the signal moves. `Cc1c(O)c(-c2ncc3nc(N4CCC5(CCN5)C4)ccc3n2)cc2cn(C)nc12` (stereo not drawn) [Compound 342, 5-(6-{1,6-diazaspiro[3.4]octan-6-yl}pyrido[3,2-d]pyrimidin-2-yl)-2,7-dimethylindazol-6-ol]: the “Effect of Exemplary Compounds on Cell Viability, K562” value (“Effect of Exemplary Compounds” for short) in the data set with K562 cells is given as “B (B represents 100-1000 nM)”. In addition, the IC50 in the data set with Target C, in the data set with MYB mRNA (setting [1]), in the data set on MYB mRNA (setting [2]) and in the data set on MYB was 0.1 to 1 µM throughout. Also, the AC50 in the data set on MYB mRNA (RT-qPCR) was 0.1 to 1 µM.

For the molecule `Cc1cc2nc(-c3ccc4nc(N5CCC(NC(C)(C)C)C5)ccc4n3)cn2c(C)n1` (stereo not drawn) [Compound 344, N-tert-butyl-1-(6-{5,7-dimethylimidazo[1,2-c]pyrimidin-2-yl}-1,5-naphthyridin-2-yl)pyrrolidin-3-amine], in the data set with K562 cells, the “Effect of Exemplary Compounds” value was “D (D represents greater than 10 μM in K562 cells)”. Further, the IC50 in the data set with Target C, in the data set with MYB mRNA (setting [1]), in the data set with MYB mRNA (setting [2]) and with MYB was 1 to 10 µM in each case. Moreover, in the data set with MYB mRNA (RT-qPCR), the AC50 was 1 to 10 µM.

Regarding `CCc1nc2cc(O)c(-c3ccc4nc(N5CCC(NC(C)(C)C)C5)ccc4n3)cc2o1` (stereo not drawn) [Compound 346, 6-{6-[3-(tert-butylamino)pyrrolidin-1-yl]-1,5-naphthyridin-2-yl}-2-ethyl-1,3-benzoxazol-5-ol], the “Effect of Exemplary Compounds” value with K562 cells is given as “C (C represents 1000-9999 nM)”. Further, the IC50 with Target C, with MYB mRNA (setting [1]), in the data set on MYB mRNA (setting [2]) and in the data set with MYB was 1 to 10 µM each time. For the same molecule, the AC50 in the data set on MYB mRNA (RT-qPCR) lay within 1 to 10 µM.

As for `Cc1nc2cc(O)c(-c3ccc4nc(N5CC[C@H](N[C@H]6C[C@H](F)C6)C5)ccc4n3)cc2o1` [Compound 350, 2-methyl-6-{6-[(3S)-3-{[(1r,3r)-3-fluorocyclobutyl]amino}pyrrolidin-1-yl]-1,5-naphthyridin-2-yl}-1,3-benzoxazol-5-ol], the “Effect of Exemplary Compounds” value with K562 cells is recorded as “B (B represents 100-1000 nM)”. Moreover, the IC50 in the data set on Target C, in the data set with MYB mRNA (setting [1]), in the data set on MYB mRNA (setting [2]) and in the data set with MYB was 0.1 to 1 µM in each case. The half-maximal activity concentration (AC50) in the data set on MYB mRNA (RT-qPCR) lay within 0.1 to 1 µM.
